Experiment [1] concerns the target T1, human 5-HT2A receptor (Homo sapiens, UniProt P28223). Kind of experiment: Human 5-HT2A functional FLIPR assay (agonist mode). In kind it is cell-based. Details: expressed in transfected cells; host or cells: HTR2A&Gα15-HEK293 (tetracycline induction). The protocol:
The potential excitatory effects of compounds targeting on human 5-hydroxytryptamine receptor 2A (5-HT2A) under agonist mode was assessed.
HTR2A&Gα15-HEK293 cells were cultured in DMEM medium containing 10% dialyzed FBS and 1×penicillin-streptomycin, 100 μg/mL Hygromycin B and 300 μg/mL G418. The cells were passaged about three times a week, maintained between ˜30% to ˜90% confluence.
1. The cell culture medium (DMEM medium containing 10% dialyzed FBS and 1×penicillin-streptomycin, 100 μg/mL Hygromycin B and 300 μg/mL G418), TrypLE™ Express and DPBS to R.T. was warmed in advance.
2. For induction, 1 μg/ml tetracycline (final concentration) was added to cell culture medium and incubated for 48 hours prior to seeding cells into plate at 37° C., 5% (v/v) C02. The cell culture medium was removed from flask. Cells were washed with DPBS.
3. 2 mL TrypLE™ Express was added to the flask, mixed well by gentle shaking and cells were incubated at 37° C. for a few minutes.
4. The cells were checked for morphological change under microscope, the digestion was stopped by adding 4 mL cell culture medium to the flask when most of cells turned to round.
5. The cell suspension was transferred into a 15 mL centrifuge tube, and then centrifuged at 1,200 rpm for 5 minutes.
6. The supernatant was removed. The cell pellet was resuspended with 2 mL cell culture medium.
7. The cell density was counted using cell counter.
9. 30 μL/well cell suspensions added into a 384-well cell plate (The cell density was 20,000 cells/well).
10. The cell plate was incubated overnight at 37° C., 5% (v/v) CO2.
On the day of experiments, culture medium was removed from the cell plate.
10 μL of assay buffer (20 mM HEPES, in 1x HBSS, pH 7.4) was added to each well of the cell plate.
2×dye solution was prepared following the manual of the F LIP R® Calcium 6 Assay Kit: • i. The dye was diluted with assay buffer. • ii. Probenecid was added to the final concentration of 5 mM. • iii. Vortexed vigorously for I-2 minutes.
4. 10 μL of 2x dye solution was added to each well of the cell plate.
5. The cell plate was placed on plate shaker, followed by shaking at 600 rpm for 2 minutes.
6. The plate was incubated at 37° C. for 2 hours followed by an additional 15-minute incubation at 25° C.
1. Serotonin HCl was prepared to the concentration of 10 mM with DMSO.
2. The test compounds were prepared to the concentration of 10 mM with DMSO.
3. The compounds were added to a 384-well compound source plate.
4. 3-folds serial dilutions were performed with DMSO.
5. 90 nL/well of serial diluted compounds was transferred from source plate to a 384-well compound plate by using an Echo.
6. 30 μL/well of assay buffer (20 mM HEPES in 1x HBSS, pH 7.4) was added to the compound plate.
7. The plate was mixed on-plate shaker for 2 minutes.
1. After the cells were incubated with dye solution, the cell plate, compound plate containing 3×compounds and F LIP R tips were placed into F LIP R.
2. 10 μL of 3×compounds transferred from the compound plate to the cell plate by FLIP R.
3. The plate was read for 160 sec with 1 sec interval and the data of agonist mode was obtained.
1. The normalized fluorescence reading (RFU) was calculated as shown below, wherein F max and F min stand for maximum and minimum of calcium signal during defined time window:
2. EC50 by fitting R F U against log of compound concentrations with Hill equation was calculated using XLfit.
The potential excitatory effects of compounds targeting human 5-hydroxytryptamine receptor 2A (5-HT2A) under agonist mode was assessed.
2. For induction, 1 μg/ml tetracycline (final concentration) was added to cell culture medium and incubated for 48 hours prior to seeding cells into plate at 37° C., 5% (v/v) CO2. The cell culture medium was removed from flask. Cells were washed with DPBS.
1. On the day of experiments, culture medium was removed from the cell plate.
2. 10 μL of assay buffer (20 mM HEPES, in 1×HBSS, pH 7.4) was added to each well of the cell plate.

Experiment [2] addresses T1, human 5-HT2A receptor. Kind of experiment: Human 5-HT2A radioligand binding assay ([3H]-ketanserin). Also on record: expressed in transfected cells; host or cells: HTR2A&Gα15-HEK293 (tetracycline induction). How it is done: The objective of this study was to evaluate the binding properties of exemplary compounds of Formula (I) on 5-hydroxytryptamine receptor 2A (5-HT2A).
1. The assay buffer was prepared following Table 13 below.
Adjust pH to 7.4 followed by […] sterile filtration
2. 8 doses of reference and test compounds starting from 10 mM stock solution as required was prepared by 5-fold serial dilutions with 100% (v/v) DMSO.
3. UniFilter-96 GF/B plate was pretreated: • i. 50 μl/well of 0.5% (v/v) PEI was added to UniFilter-96 […] plates. The plates were sealed and incubated at 4° C. for 3 hrs. • ii. After incubation, the plates were washed 3 times with ice-cold wash buffer (50 mM Tris, pH7.4).
4. The assay plate was prepared: • i. Cell membrane was diluted with assay buffer and 330 μl/well was added to 96 round deep well plates to reach a concentration of 20 μg/well. • ii. 8 concentrations of reference or test compounds were prepared and 110 μl/well was added to 96 round deep well plates. • iii. [3H]-ketanserin was diluted with assay buffer to 5 nM (5×final concentration) and 110 μl/well was added to 96 round deep well plates.
5. The plate was centrifuged at 1000 rpm for 30 secs and then agitated at 600 rpm, R.T. for 5 min. […]
7. The incubation was stopped by vacuum filtration onto GF/B filter plates followed by 4 times washing with ice-cold wash buffer (50 mM Tris, pH7.4).
9. The filter plates were sealed and 40 μl/well of scintillation cocktail was added.
10. The plate was read by using a Microbeta^2 microplate counter.
1. For reference and test compounds, the results were expressed as % Inhibition, using the normalization equation: N=100−100×(U-C2)/(C1-C2), where U is the unknown value, C1 is the average of high controls, and C2 is the average of low controls.
2. The IC50 was determined by fitting percentage of inhibition as a function of compound concentrations with Hill equation using XLfit. […]

Where [3] appears, read: FLIPR calcium, agonist mode, HTR2A&Gα15-HEK293 cells (Table 39), read-out: h5-HT2A, EC50.
Where [4] appears, read: [3H]-ketanserin displacement (Table 43), read-out: h5-HT2A, IC50.

Like-named read-outs stand apart in the source and are kept apart here.

T1 sequence (P28223 whole entry): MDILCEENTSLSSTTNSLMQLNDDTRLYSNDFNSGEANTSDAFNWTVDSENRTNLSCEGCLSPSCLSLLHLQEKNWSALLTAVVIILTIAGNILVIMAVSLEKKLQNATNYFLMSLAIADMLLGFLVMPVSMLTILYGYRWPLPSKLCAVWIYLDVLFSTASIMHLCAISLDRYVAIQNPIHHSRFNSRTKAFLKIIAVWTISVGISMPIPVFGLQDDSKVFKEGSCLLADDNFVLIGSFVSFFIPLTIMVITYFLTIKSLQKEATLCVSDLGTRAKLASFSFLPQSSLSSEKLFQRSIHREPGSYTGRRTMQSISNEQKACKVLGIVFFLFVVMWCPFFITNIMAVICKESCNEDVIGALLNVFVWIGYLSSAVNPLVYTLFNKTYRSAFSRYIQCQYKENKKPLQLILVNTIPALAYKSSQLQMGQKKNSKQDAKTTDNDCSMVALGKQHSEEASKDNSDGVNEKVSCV

As to `COc1ccc2[nH]cc(CCN3CC[C@@H](OC)C3)c2c1` [(R) I-66, (R)-5-methoxy-3-(2-(3-methoxypyrrolidin-1-yl)ethyl)-1H-indole], the “RFU@10 μM” value at human 5-HT2A receptor [1] (RFU=Fmax−Fmin (Table 39)) turned out to be 752 RFU. In addition, the half-inhibitory concentration (IC50) at human 5-HT2A receptor [2] was 4250 nM.
For the compound `COc1ccc2[nH]cc(CCN3CC[C@@H](OC(F)F)C3)c2c1` [(R) I-67, (R)-3-(2-(3-(Difluoromethoxy)pyrrolidin-1-yl)ethyl)-5-methoxy-1H-indole], the “RFU@10 μM” value at human 5-HT2A receptor [1] (RFU=Fmax−Fmin (Table 39)) is listed as 225 RFU. The compound also came in with an IC50 on human 5-HT2A receptor [2] of 4080 nM.
Turning to `COc1ccc2[nH]cc(CCN3CC[C@H](OC(F)F)C3)c2c1` [(S) I-67, (S)-3-(2-(3-(Difluoromethoxy)pyrrolidin-1-yl)ethyl)-5-methoxy-1H-indole], at human 5-HT2A receptor [1], the midpoint of the response, the EC50, lay at 994 nM. Moreover, at human 5-HT2A receptor [1] (RFU=Fmax−Fmin (Table 39)), the “RFU@10 μM” value was 2,147 RFU. On human 5-HT2A receptor [2], this compound gave a half-maximal inhibitory concentration (IC50) of 4880 nM.
For the compound `[2H]C([2H])([2H])N(CCc1c[nH]c2ccc(SC)cc12)C([2H])([2H])[2H]` [Compound I-1, N,N-Bis(methyl-d3)-2-(5-(methylthio)-1H-indol-3-yl)ethan-1-amine], on human 5-HT2A receptor [1], it took 45 nM to reach a half-maximal effect (EC50). Besides, at human 5-HT2A receptor [1] (RFU=Fmax−Fmin (Table 9)), the “RFU@10 μM” value is recorded as 7,177 RFU. This compound gave a concentration for half-maximal inhibition (IC50) on human 5-HT2A receptor [2] of 392 nM.
For the compound `CCN(CC)CCc1c[nH]c2ccc(SC)cc12` [Compound I-12, N,N-Diethyl-2-(5-(methylthio)-1H-indol-3-yl)ethan-1-amine], on human 5-HT2A receptor [1], the EC50 worked out at 77 nM. Further, on human 5-HT2A receptor [1] (RFU=Fmax−Fmin (Table 9)), the “RFU@10 μM” value is recorded as 1,041 RFU. Also, the IC50 at human 5-HT2A receptor [2] came out at 780 nM.
`CCN(C)CCc1c[nH]c2ccc(SC)cc12` [Compound I-13, N-Ethyl-N-methyl-2-(5-(methylthio)-1H-indol-3-yl)ethan-1-amine] yielded a concentration giving a half-maximal response (EC50) at human 5-HT2A receptor [1] of 18 nM. At human 5-HT2A receptor [1] (RFU=Fmax−Fmin (Table 9)), the “RFU@10 μM” value is 726 RFU. Further, the IC50 on human 5-HT2A receptor [2] was found to be 253 nM.
At human 5-HT2A receptor [1], `CSc1ccc2[nH]cc(CCN(C(C)C)C(C)C)c2c1` [Compound I-17, N-Isopropyl-N-(2-(5-(methylthio)-1H-indol-3-yl)ethyl)propan-2-amine] came in with an EC50 of 37 nM. Moreover, the “RFU@10 μM” value at human 5-HT2A receptor [1] (RFU=Fmax−Fmin (Table 9)) was 8,546 RFU. Besides, the concentration for half-maximal inhibition (IC50) on human 5-HT2A receptor [2] stood at 1980 nM.
With `CSc1ccc2[nH]cc(CCN(C)C(C)C)c2c1` [Compound I-19, N-Methyl-N-(2-(5-(methylthio)-1H-indol-3-yl)ethyl)propan-2-amine], it took 33 nM to reach a half-maximal effect at human 5-HT2A receptor [1] (EC50). Also, the “RFU@10 μM” value on human 5-HT2A receptor [1] (RFU=Fmax−Fmin (Table 9)) turned out to be 819 RFU. For the same compound, the concentration for half-maximal inhibition (IC50) at human 5-HT2A receptor [2] was determined as 936 nM.
Turning to `COc1ccc2[nH]cc(CCN(C)CCOC(F)F)c2c1` [Compound I-71, 2-(Difluoromethoxy)-N-(2-(5-methoxy-1H-indol-3-yl)ethyl)-N-methylethan-1-amine], at human 5-HT2A receptor [1] (RFU=Fmax−Fmin (Table 39)), the “RFU@10 μM” value was 1,094 RFU. Moreover, the concentration giving a half-maximal response (EC50) at human 5-HT2A receptor [1] (setting [3]) was 257 nM. The IC50 at human 5-HT2A receptor [2] (setting [4]) is 2300 nM.
Regarding `CN(C)CCc1c[nH]c2ccc(OCCOC(F)F)cc12` [Compound I-128, 2-(5-(2-(Difluoromethoxy)ethoxy)-1H-indol-3-yl)-N,N-dimethylethan-1-amine], a half-maximal response at human 5-HT2A receptor [1] (EC50) required 1210 nM. At human 5-HT2A receptor [1] (RFU=Fmax−Fmin (Table 39)), the “RFU@10 μM” value is on record as 2,159 RFU. The compound also displayed an IC50 on human 5-HT2A receptor [2] of 7830 nM.
Turning to `CN(CCOC(F)F)CCc1c[nH]c2ccccc12` [Compound I-130, N-(2-(1H-Indol-3-yl)ethyl)-2-(difluoromethoxy)-N-methylethan-1-amine], the “RFU@10 μM” value on human 5-HT2A receptor [1] (RFU=Fmax−Fmin (Table 39)) was 247 RFU. In addition, at human 5-HT2A receptor [2] (setting [4]), the 50% inhibitory concentration (IC50) came out at 5680 nM.
On to `CN(C)CCc1c[nH]c2ccccc12` [DMT], for which the “RFU@10 μM” value on human 5-HT2A receptor [1] (RFU=Fmax−Fmin (Table 9)) and on human 5-HT2A receptor [1] (RFU=Fmax−Fmin (Table 39)) was 3,493 RFU throughout. For the same compound, the EC50 came out at 163 nM on human 5-HT2A receptor [1] (FLIPR calcium, agonist mode, HTR2A&Gα15-HEK293 cells (Table 9), read-out: h5-HT2A, EC50) and 163 nM at human 5-HT2A receptor [1] (setting [3]). Moreover, the IC50 on human 5-HT2A receptor [2] ([3H]-ketanserin displacement (Table 14), read-out: h5-HT2A, IC50) is 954 nM; at human 5-HT2A receptor [2] (setting [4]), 954 nM.
